Measured values taken from the NIST ThermoML archive (doi:10.1016/j.jct.2005.03.016).

Settings: Liquid, Vibrating tube method

CCO [ethanol]
mass density [kg/m3]
Settings | 100 kPa | 5000 kPa | 10000 kPa | 15000 kPa | 20000 kPa | 25000 kPa | 30000 kPa | 35000 kPa | 40000 kPa | 45000 kPa
283.15 K | 798 | 802 | 805.9 | 809.5 | 813 | 816.4 | 819.7 | 822.8 | 825.9 | 828.8
293.15 K | 789.5 | 793.7 | 797.8 | 801.6 | 805.3 | 808.9 | 812.3 | 815.6 | 818.7 | 821.8
303.15 K | 780.9 | 785.3 | 789.6 | 793.7 | 797.5 | 801.3 | 804.8 | 808.2 | 811.5 | 814.7
313.15 K | 772.1 | 776.8 | 781.3 | 785.6 | 789.6 | 793.5 | 797.2 | 800.8 | 804.2 | 807.6
323.15 K | 763.3 | 768.3 | 773 | 777.6 | 781.8 | 785.9 | 789.7 | 793.5 | 797.1 | 800.5
333.15 K | 754 | 759.3 | 764.3 | 769.1 | 773.6 | 777.8 | 781.9 | 785.8 | 789.5 | 793.1
343.15 K | 744.5 | 750.1 | 755.5 | 760.5 | 765.3 | 769.8 | 774 | 778.1 | 782 | 785.7
353.15 K | – | 740.6 | 746.4 | 751.7 | 756.7 | 761.5 | 766 | 770.2 | 774.3 | 778.2

CC1CCCCC1 [methylcyclohexane]
mass density [kg/m3]
Settings | 100 kPa | 5000 kPa | 10000 kPa | 15000 kPa | 20000 kPa | 25000 kPa | 30000 kPa | 35000 kPa | 40000 kPa | 45000 kPa
283.15 K | 777.6 | 781.4 | 785.2 | 788.7 | 792.1 | 795.3 | 798.5 | 801.5 | 804.4 | 807.3
293.15 K | 769 | 773 | 777 | 780.7 | 784.3 | 787.8 | 791.1 | 794.2 | 797.3 | 800.2
303.15 K | 760.4 | 764.7 | 768.9 | 772.8 | 776.6 | 780.2 | 783.7 | 787 | 790.2 | 793.3
313.15 K | 751.7 | 756.2 | 760.7 | 764.8 | 768.8 | 772.7 | 776.3 | 779.8 | 783.1 | 786.4
323.15 K | 742.9 | 747.7 | 752.5 | 756.9 | 761.1 | 765.1 | 769 | 772.6 | 776.1 | 779.5
333.15 K | 733.9 | 739 | 744.1 | 748.8 | 753.3 | 757.5 | 761.5 | 765.4 | 769 | 772.5
343.15 K | 724.8 | 730.4 | 735.8 | 740.8 | 745.6 | 750 | 754.2 | 758.2 | 762.1 | 765.7
353.15 K | 715.7 | 721.7 | 727.4 | 732.8 | 737.8 | 742.5 | 747 | 751.2 | 755.2 | 759
